Assay results from US6677347B2, “Sulfonamido ether substituted imidazoquinolines” (3M Innovative Properties Company, priority 2000, dated 2004).

Test system: not given
Experiment: not given
Conditions: not given

SMILES	melting point [°C]
COCCc1nc2c(N)nc3c(c2n1CCOCCNS(C)(=O)=O)CCCC3 [Example 2, N-(2-{2-[4-amino-2-(2-methoxyethyl)-6,7,8,9-tetrahydro-1H-imidazo[4,5-c]quinolin-1-yl]ethoxy}ethyl)methanesulfonamide]	151 to 153
COCCc1nc2c(N)nc3ccccc3c2n1CCOCCN(C)S(C)(=O)=O [Example 3, N-(2-{2-[4-amino-2-(2-methoxyethyl)-1H-imidazo[4,5-c]quinolin-1-yl]ethoxy}ethyl)-N-methylmethanesulfonamide]	145 to 146.5
COCCc1nc2c(N)nc3c(c2n1CCOCCN(C)S(C)(=O)=O)CCCC3 [Example 4, N-(2-{2-[4-amino-2-(2-methoxyethyl)-6,7,8,9-tetrahydro-1H-imidazo[4,5-c]quinolin-1-yl]ethoxy}ethyl)-N-methylmethanesulfonamide]	115.3 to 117.8
CCCCc1nc2c(N)nc3ccccc3c2n1CCOCCN1CCCS1(=O)=O [Example 5, 2-Butyl-1-{2-[2-(1,1-dioxidoisothiazolidin-2-yl)ethoxy]ethyl}-1H-imidazo[4,5-c]quinolin-4-amine]	152 to 154
CCc1nc2c(N)nc3ccccc3c2n1CCOCCN [Example 52, 1-[2-(2-aminoethoxy)ethyl]-2-ethyl-1H-imidazo[4,5-c]quinolin-4-amine]	144 to 146
Cc1nc2c(N)nc3ccccc3c2n1CCOCCN1CCCS1(=O)=O [Example 60, 1-{2-[2-(1,1-Dioxidoisothiazolidin-2-yl)ethoxy]ethyl}-2-methyl-1H-imidazo[4,5-c]quinolin-4-amine]	186 to 187

Now from value to compound:

melting point [°C]	SMILES
114 to 117	COCCc1nc2c(N)nc3ccccc3c2n1CCOCCNS(C)(=O)=O [Example 1, N-(2-{2-[4-amino-2-(2-methoxyethyl)-1H-imidazo[4,5-c]quinolin-1-yl]ethoxy}ethyl)methanesulfonamide]
155 to 157	Cc1nc2c(N)nc3ccccc3c2n1CCOCCN [Example 51, 1-[2-(2-aminoethoxy)ethyl]-2-methyl-1H-imidazo[4,5-c]quinolin-4-amine]
152 to 155	Cc1nc2c(N)nc3ccccc3c2n1CCOCCNS(C)(=O)=O [Example 54, N-{2-[2-(4-amino-2-methyl-1H-imidazo[4,5-c]quinolin-1-yl)ethoxy]ethyl}methanesulfonamide]
172 to 175	Cc1nc2c(N)nc3ccccc3c2n1CCOCCNS(=O)(=O)C(C)C [Example 55, N-{2-[2-(4-amino-2-methyl-1H-imidazo[4,5-c]quinolin-1-yl)ethoxy]ethyl}propane-2-sulfonamide]
169 to 171	CCc1nc2c(N)nc3ccccc3c2n1CCOCCNS(C)(=O)=O [Example 56, N-{2-[2-(4-amino-2-ethyl-1H-imidazo[4,5-c]quinolin-1-yl)ethoxy]ethyl}methanesulfonamide]
152 to 155	CCOCc1nc2c(N)nc3ccccc3c2n1CCOCCNS(C)(=O)=O [Example 57, N-(2-{2-[4-amino-2-(ethoxymethyl)-1H-imidazo[4,5-c]quinolin-1-yl]ethoxy}ethyl)methanesulfonamide]
139 to 142	CCOCc1nc2c(N)nc3ccccc3c2n1CCOCCNS(=O)(=O)C(C)C [Example 58, N-(2-{2-[4-amino-2-(ethoxymethyl)-1H-imidazo[4,5-c]quinolin-1-yl]ethoxy}ethyl)propane-2-sulfonamide]
129.7 to 130.2	COCCc1nc2c(N)nc3ccccc3c2n1CCOCCN(C)S(=O)(=O)C(C)C [Example 59, N-(2-{2-[4-amino-2-(2-methoxyethyl)-1H-imidazo[4,5-c]quinolin-1-yl]ethoxy}ethyl)-N-methylpropane-2-sulfonamide]

Test system: tumor necrosis factor (α)
Experiment: Cytokine Induction in Human Cells: tumor necrosis factor (α) by ELISA or IGEN assay
Format: cell-based
Design: key to Lowest Effective Concentration (μM) Tumor Necrosis Factor: *: no induction was seen at any of the tested concentrations; generally the highest concentration tested was 10 or 30 μM
Conditions: human PBMC, 18 to 24 hours incubation, lowest concentration found to induce tumor necrosis factor
Excerpt: (§1) An in vitro human blood cell system is used to assess cytokine induction. Activity is based on the measurement of interferon and tumor necrosis factor (α) (IFN and TNF, respectively) secreted into culture media as described by Testerman et. al. In “Cytokine Induction by the Immunomodulators Imiquimod and S-27609”, Journal of Leukocyte Biology, 58, 365-372 (September, 1995).
(§2) Whole blood from healthy human donors is collected by venipuncture into EDTA vacutainer tubes. Peripheral blood mononuclear cells (PBMC) are separated from whole blood by density gradient centrifugation using Histopaque®-1077. Blood is diluted 1:1 with Dulbecco's Phosphate Buffered Saline (DPBS) or Hank's Balanced Salts Solution (HBSS). The PBMC layer is collected and washed twice with DPBS or HBSS and resuspended at 4×10^6 cells/mL in RPMI complete. The PBMC suspension is added to 48 well flat bottom sterile tissue culture plates (Costar, Cambridge, Mass. or Becton Dickinson Labware, Lincoln Park, N.J.) containing an equal volume of RPMI complete media containing test compound.
(§3) The compounds are solubilized in dimethyl sulfoxide (DMSO). The DMSO concentration should not exceed a final concentration of 1% for addition to the culture wells. The compounds are generally tested at concentrations ranging from 30-0.014 μM.
(§4) The solution of test compound is added at 60 μM to the first well containing RPMI complete and serial 3 fold dilutions are made in the wells. The PBMC suspension is then added to the wells in an equal volume, bringing the test compound concentrations to the desired range (30-0.014 μM). The final concentration of PBMC suspension is 2×10^6 cells/mL. The plates are covered with sterile plastic lids, mixed gently and then incubated for 18 to 24 hours at 37° C. in a 5% carbon dioxide atmosphere.
(§5) Following incubation the plates are centrifuged for 10 minutes at 1000 rpm (˜200×g) at 4° C. The cell-free culture supernatant is removed with a sterile polypropylene pipet and transferred to sterile polypropylene tubes. Samples are maintained at −30 to −70° C. until analysis. The samples are analyzed for interferon (α) by ELISA and for tumor necrosis factor (α) by ELISA or IGEN Assay
Tumor necrosis factor (α) (TNF) concentration is determined using ELISA kits available from Biosource International, Camarillo, Calif. Alternately, the TNF concentration can be determined by Origen® M-Series Immunoassay and read on an IGEN M-8 analyzer from IGEN International, Gaithersburg, Md. The immunoassay uses a human TNF capture and detection antibody pair from Biosource International, Camarillo, Calif. Results are expressed in pg/mL.
(§6) The table below lists the lowest concentration found to induce interferon and the lowest concentration found to induce tumor necrosis factor for each compound.

SMILES	minimal effective concentration [µM]	Lowest Effective Concentration (μM) Tumor Necrosis Factor
COCCc1nc2c(N)nc3ccccc3c2n1CCOCCN(C)S(C)(=O)=O [Example 3, N-(2-{2-[4-amino-2-(2-methoxyethyl)-1H-imidazo[4,5-c]quinolin-1-yl]ethoxy}ethyl)-N-methylmethanesulfonamide]	0.12	
Cc1nc2c(N)nc3ccccc3c2n1CCCOCCOCCCNS(=O)(=O)c1cccc2c(N(C)C)cccc12 [Example 50, N-[10-(4-amino-2-methyl-1H-imidazo[4,5-c]quinolin-1-yl)-4,7-dioxadecyl]-5-dimethylaminonaphthalene-1-sulfonamide]		*

Test system: interferon (α)
Experiment: Cytokine Induction in Human Cells: interferon (α) by ELISA
Format: cell-based
Conditions: human PBMC, 18 to 24 hours incubation, lowest concentration found to induce interferon
Excerpt: as §1, §2, §3, §4, §5
Interferon (α) concentration is determined by ELISA using a Human Multi-Species kit from PBL Biomedical Laboratories, New Brunswick, N.J. Results are expressed in pg/mL.
as §6

SMILES	minimal effective concentration [µM]
COCCc1nc2c(N)nc3ccccc3c2n1CCOCCN(C)S(C)(=O)=O [Example 3, N-(2-{2-[4-amino-2-(2-methoxyethyl)-1H-imidazo[4,5-c]quinolin-1-yl]ethoxy}ethyl)-N-methylmethanesulfonamide]	0.01
Cc1nc2c(N)nc3ccccc3c2n1CCCOCCOCCCNS(=O)(=O)c1cccc2c(N(C)C)cccc12 [Example 50, N-[10-(4-amino-2-methyl-1H-imidazo[4,5-c]quinolin-1-yl)-4,7-dioxadecyl]-5-dimethylaminonaphthalene-1-sulfonamide]	1.11
